From article PMC4987650, “Structural Investigation of Park’s Nucleotide on Bacterial Translocase MraY: Discovery of Unexpected MraY Inhibitors” (Scientific Reports, 2016)
Entries after “also recorded” stand apart in the source; their conditions may differ. Like-named read-outs stand apart in the source and are kept apart here. Numbered stars: 1 amine (or outer) side, 2 acyl side, 3 side chain; on linkers, the order of the positions; unused ones are H or OH. Square brackets hold non-standard residues; d marks the D form. Peptide text beside a SMILES is read from it. * marks the point of attachment. UDPMurNAc = CC(=O)N[C@H]1[C@@H](OP(=O)(O)OP(=O)(O)OC[C@H]2O[C@@H](n3ccc(=O)[nH]c3=O)[C@H](O)[C@@H]2O)O[C@H](CO)[C@@H](O)[C@@H]1O[C@H](C)C(=O)*; d(γGlu) = O=C(O)[C@@H](CCC(=O)[*:2])N[*:1]; NBD = O=[N+]([O-])c1ccc(*)c2nonc12; GABA = NCCCC(=O)O

What was measured:
MraYBS [1] = target: T1, MraYBS (Bacillus subtilis, UniProt Q03521); assay: MraY fluorescence enhancement assay (kinetics, inhibition); assay type: biochemical; details: for Inhibition Mode: Lineweaver-Burk
T1 construct: MBP; made in house
T1 sequence (Q03521 1-324): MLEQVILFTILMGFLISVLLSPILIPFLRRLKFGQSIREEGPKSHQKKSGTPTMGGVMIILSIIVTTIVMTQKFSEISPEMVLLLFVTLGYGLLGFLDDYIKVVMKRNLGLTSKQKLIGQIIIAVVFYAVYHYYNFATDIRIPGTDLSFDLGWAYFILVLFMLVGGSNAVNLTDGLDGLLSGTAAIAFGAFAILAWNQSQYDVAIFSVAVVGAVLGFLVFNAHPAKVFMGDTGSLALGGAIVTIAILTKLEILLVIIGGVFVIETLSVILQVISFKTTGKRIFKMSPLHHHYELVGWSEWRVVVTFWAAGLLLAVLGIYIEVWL
Description: Determine kinetic parameters by MraY fluorescence enhancement assay. The fluorescence enhancement assay was performed in 384-well plate as described by Bugg et al. with slight modifications.5 The reaction mixture containing MraYBS (10 μg/mL), C55P (200 μM) in 30 μL reaction buffer (30 mM Tris, 10 mM MgCl2, 10 mM NaCl, 0.1 mM Tween-20, 2.5% DMSO, pH 8.0) were pre-incubated at 37 °C for 15 min. The reactions were initiated by the addition of various concentrations of NBD-Park’s nucleotide 6 (0 to 160 μM). For inhibition study, a various concentrations of inhibitors were added before the addition of substrate 6. The continuous fluorescence increase over 60 min was monitored with λex 466 nm/λem 535 nm by fluorescence microplate reader (SpectraMax M5, Molecular Devices, LLC) at 37 °C. Linear regressions of increased fluorescent units (FLU) versus time (min) were used to calculate the initial velocities for each reaction. The kinetic parameters values (Ki, KM, and Vmax) were obtained by nonlinear regression analysis using the […] equation with the GraphPad Prism program (GraphPad Software, San

MraYBS [2] = target: T1, MraYBS; assay: Biolayer interferometry-based (BLI) binding assay; details: for binding affinity with MraYBS: concentrations up to 500 μM
Description: MraYBS binding was measured in a biolayer interferometry-based binding assay on Octet Red96® instrument (ForteBio, Inc.). The biotinylation of MraYBS was performed with using EZ-Link® Sulfo-NHS-LC-LC-Biotin Kit (Thermo Fisher Scientific, Inc.). In general, MraYBS (1.7 mg/mL) in 50 μL reaction buffer (0.01 M HEPES pH 7.4, 0.15 M NaCl, 0.005% v/v Surfactant P20), was added by the sulfo-NHS-LC-LC-biotin reagent (1 mM, 1 μL). After incubating for 30 minutes at room temperature, the biotinylated-MraYBS was purified by a Zeba^TM Spin Desalting Columns, 7K MWCO (Thermo Fisher Scientific, Inc.), and the buffer was changed to the binding buffer (30 mM Tris, 10 mM MgCl2, 10 mM NaCl, 0.1 mM Tween-20, pH 8.0) during the purification. Comparing to the non-biotinylated-MraYBS, the biotinylated-MraYBS remains 62% activity measured by the HPLC-based MraY functional assay in 1 h reaction. The biotinylated MraYBS was then immobilized to Super Streptavidin (SSA) Octet tips (ForteBio, Inc.) for reaching a fixed signal of 3 nm. Before the assay starting, the MraYBS-labeled SSA sensors were pre-soaked in binding buffer for 30 min. The association of Park’s analogues with MraYBS were measured by incubating MraYBS-labeled SSA sensors in binding buffer containing various concentrations of samples in Octet Red system. The dissociation was monitored by moving the ligand biosenors from the analyte solution to binding buffer. The dissociation constants (KD) were obtained by nonlinear regression analysis using the specific binding model with the GraphPad Prism program (GraphPad Software, San Diego, CA).

MraYBS [3] = target: T1, MraYBS; assay: HPLC-based MraY functional assay (substrate activity); assay type: biochemical; details: for conversion %: lipid phosphates 200 μM, NBD-Park's nucleotide (6) 10 μM, 1 h, from consumption of 6, n = 3, average ± SD; for conversion % / recognized as a MraYBS substrate: MraYBS 10 μg/mL; for conversion % / recognized as a MraYBS substrate / substrate under extreme reaction conditions: 37 °C; for recognized as a MraYBS substrate: analogue 10 μM, C55P 200 μM; for substrate under extreme reaction conditions: Park's nucleotides 10 μM, MraYBS 40 μg/mL, C55P 1 mM, 24 h
Description: The purified MraY from Bacillus subtilis was prepared as described in our previous reports. […] […] The reaction mixtures were added by uridine (0.01 mg/mL) as the internal standard and heated to 100 °C to stop the transferring reaction. The samples were analyzed by RP-C18 HPLC with gradient elution of 0.25 M NH4HCO3(aq)/15% MeOH in water (100:0 to 0:100) at a flow rate of 1 mL/min over 45 min, and the peaks of substrates were monitored at UV 260 nm. For 6 and 11–17, the reaction mixture containing MraYBS (10 μg/mL), C55P (200 μM), 6-(7-Nitro-2,1,3-benzoxadiazol-4-ylamino)hexanoic acid (5 μM, internal standard) in 10 μL reaction buffer (30 mM Tris, 10 mM MgCl2, 10 mM NaCl, 0.1 mM Tween-20, 2.5% DMSO, pH 8.0) were pre-incubated at 37 °C for 15 min. […] The reaction mixtures were heated to 100 °C to stop the transferring reaction, and samples were analyzed by an anion-exchange column (SAX1, Supelco Co., 5 μm, 4.6 × 250 mm) with a linear gradient elution of NH4OAc (20 mM to 1 M in MeOH) at a flow rate of 1.0 mL/min over 30 min. The fluorescent substrates were monitored with λex 466 nm/λem 535 nm by fluorescence detector.

CC(=O)Nc1cn([C@@H]2O[C@H](COP(=O)(O)OP(=O)(O)O[C@H]3O[C@H](CO)[C@@H](O)[C@H](O[C@H](C)C(=O)N[C@@H](C)C(=O)O)[C@H]3NC(C)=O)[C@@H](O)[C@H]2O)c(=O)[nH]c1=O [Compound 19]
Ki (MraYBS [1]): 764 ± 127 µM | Inhibition Mode (MraYBS [1]; 6 as substrate): Competitive | Kd (MraYBS [2]): 281 ± 97 µM

CC(C)=CCC/C(C)=C/CC/C(C)=C/CC/C(C)=C/CC/C(C)=C/CC/C(C)=C/CC/C(C)=C/CC/C(C)=C/CC/C(C)=C/CC/C(C)=C/CC/C(C)=C/CO [Undecaprenol, reference compound]
conversion % (MraYBS [3]): 96 ± 1%

CC(=O)N[C@H]1[C@@H](OP(=O)(O)OP(=O)(O)OC[C@H]2O[C@@H](n3cc(NC(=O)Cc4ccc(C)cc4)c(=O)[nH]c3=O)[C@H](O)[C@@H]2O)O[C@H](CO)[C@H](O)[C@@H]1O[C@H](C)C(=O)N[C@@H](C)C(=O)O [Compound 21]
inhibition at 1000 µM (MraYBS [1]): 30% | Kd (MraYBS [2]; BLI, without C55P): > 250 µM | binding interactions with MraYBS (MraYBS [2]; concentration up to 250 μM): no sufficient binding interactions

CC(C)=CCCC(C)=CCCC(C)=CCCC(C)=CCO [Tetraprenol, reference compound]
conversion % (MraYBS [3]): 16 ± 5%

CC(C)=CCC/C(C)=C/CC/C(C)=C/CC/C(C)=C/CC/C(C)=C/CC/C(C)=C/CC/C(C)=C/CC/C(C)=C/CC/C(C)=C/CO [Solanesol, reference compound]
conversion % (MraYBS [3]): 12 ± 2%

CC(=O)N[C@H]1[C@@H](OP(=O)(O)OP(=O)(O)OC[C@H]2O[C@@H](n3ccc(=O)[nH]c3=O)[C@H](O)[C@@H]2O)O[C@H](CO)[C@@H](O)[C@@H]1O [Compound 10, UDP-GlcNAc, reference compound]
recognized as a MraYBS substrate (MraYBS [3]): not substrates

CC(=O)N[C@H]1[C@@H](OP(=O)(O)OP(=O)(O)OC[C@H]2O[C@@H](n3ccc(=O)[nH]c3=O)[C@H](O)[C@@H]2O)O[C@H](CO)[C@@H](O)[C@@H]1O[C@H](C)C(=O)N[C@@H](C)C(=O)N[C@H](CCC(=O)N[C@@H](CCCCN)C(=O)N[C@H](C)C(=O)N[C@H](C)C(=O)O)C(=O)O [Compound 5, Park’s nucleotide]
Kd (MraYBS [2]): 120 µM | substrate consumption (MraYBS [3]; C55P (200 μM) as polyprenyl phosphate substrate, substrate 10 μM, within 1 h (60 min)): completely consumed

Tunicamycins [reference compound]
Ki (MraYBS [1]; 6 as substrate, C55P 200 μM, read-out: Ki): 9 ± 1 µM | Inhibition Mode (MraYBS [1]; 6 as substrate): Competitive | Kd (MraYBS [2]; BLI, without C55P, read-out: KD): 93 ± 16 µM

CC(C)=CCC/C(C)=C/CC/C(C)=C/CC/C(C)=C/CC/C(C)=C/CC/C(C)=C/CO [Hexaprenol, reference compound]
conversion % (MraYBS [3]): 27 ± 6%

CC(=O)N[C@H]1[C@@H](OP(=O)(O)OP(=O)(O)OC[C@H]2O[C@@H](n3ccc(=O)[nH]c3=O)[C@H](O)[C@@H]2O)O[C@H](CO)[C@H](O)[C@@H]1O[C@H](C)C(=O)N[C@@H](C)C(=O)N[C@H](CCC(=O)N[C@@H](CCCCNc1ccc([N+](=O)[O-])c2nonc12)C(=O)N[C@H](C)C(=O)N[C@H](C)C(=O)O)C(=O)O [Compound 11]
substrate under extreme reaction conditions (MraYBS [3]): did not function as substrates; also recorded: not be a substrate

CC(=O)N[C@H]1[C@@H](OP(=O)(O)OP(=O)(O)OC[C@H]2O[C@@H](n3ccc(=O)[nH]c3=O)[C@H](O)[C@@H]2O)O[C@H](CO)[C@@H](O)[C@@H]1O[C@H](C)C(=O)N[C@@H](C)C(=O)NCCCC(=O)N[C@@H](CCCCNc1ccc([N+](=O)[O-])c2nonc12)C(=O)N[C@H](C)C(=O)N[C@H](C)C(=O)O [Compound 16] (UDPMurNAc-A[GABA]K(NBD)[dA][dA]-OH)
binding affinity with MraYBS (MraYBS [2]): no proper binding affinity | relative activity compared to 6 (MraYBS [3]; after 1 h reaction): < 10%

CC(=O)N[C@H]1[C@@H](OP(=O)(O)OP(=O)(O)OC[C@H]2O[C@@H](n3ccc(=O)[nH]c3=O)[C@H](O)[C@@H]2O)O[C@H](CO)[C@@H](O)[C@@H]1O[C@H](C)C(=O)N[C@@H](C)C(=O)N[C@H](CCC(=O)O)C(=O)O [Compound 8]
substrate activity remained (MraYBS [3]; after 1 h reaction, compared with 5): 40%

CC(C)=CCC/C(C)=C/CC/C(C)=C/CC/C(C)=C/CC/C(C)=C/CC/C(C)=C/CC/C(C)=C/CO [Heptaprenol, reference compound]
conversion % (MraYBS [3]): 55 ± 3%

CC(=O)N[C@H]1[C@@H](OP(=O)(O)OP(=O)(O)OC[C@H]2O[C@@H](n3cc(N)c(=O)[nH]c3=O)[C@H](O)[C@@H]2O)O[C@H](CO)[C@@H](O)[C@@H]1O[C@H](C)C(=O)N[C@@H](C)C(=O)N[C@H](CCC(=O)N[C@@H](CCCCNc1ccc([N+](=O)[O-])c2nonc12)C(=O)N[C@H](C)C(=O)N[C@H](C)C(=O)O)C(=O)O [Compound 17]
substrate under extreme reaction conditions (MraYBS [3]): did not function as substrates; also recorded: not be a substrate

CC(=O)N[C@H]1[C@@H](OP(=O)(O)OP(=O)(O)OC[C@H]2O[C@@H](n3ccc(=O)[nH]c3=O)[C@H](O)[C@@H]2O)O[C@H](CO)[C@@H](O)[C@@H]1O[C@H](C)C(=O)N[C@@H](C)C(=O)N[C@H](CCC(=O)N[C@@H](CCCCN)C(=O)O)C(=O)O [Compound 7]
activity reduced compared with 5 (MraYBS [3]; after 1 h reaction): 17%

CC(=O)N[C@H]1[C@@H](OP(=O)(O)OP(=O)(O)OC[C@H]2O[C@@H](n3cc(N)c(=O)[nH]c3=O)[C@H](O)[C@@H]2O)O[C@H](CO)[C@@H](O)[C@@H]1O[C@H](C)C(=O)N[C@@H](C)C(=O)O [Compound 18]
inhibitory activity (MraYBS [1]; at 1 mM): no inhibition activity

CC(=O)N[C@H]1[C@@H](OP(=O)(O)OP(=O)(O)OC[C@H]2O[C@@H](n3ccc(=O)[nH]c3=O)[C@H](O)[C@@H]2O)O[C@H](CO)[C@@H](O)[C@@H]1O[C@H](C)C(=O)N[C@@H](C)C(=O)O [Compound 9]
binding affinity with MraYBS (MraYBS [2]): no proper binding affinity | recognized as a MraYBS substrate (MraYBS [3]): not substrates

CC(=O)N[C@H]1[C@@H](OP(=O)(O)OP(=O)(O)OC[C@H]2O[C@@H](n3ccc(=O)[nH]c3=O)[C@H](O)[C@@H]2O)O[C@H](CO)[C@@H](O)[C@@H]1O[C@H](C)C(=O)NCC(=O)N[C@H](CCC(=O)N[C@@H](CCCCNc1ccc([N+](=O)[O-])c2nonc12)C(=O)N[C@H](C)C(=O)N[C@H](C)C(=O)O)C(=O)O [Compound 15] (UDPMurNAc-G[d(γGlu)]K(NBD)[dA][dA]-OH)
relative activity compared to 6 (MraYBS [3]; after 1 h reaction): about 80%
